Patent US8784633B2, “Automatic positioning and sensing microelectrode arrays” (priority 2007, dated 2014)

System: cortical neurons
Assay: Multi-site recording of extracellular spontaneous electrophysiological activity of cortical neuronal networks on APSMEA
Format: cell-based, rat
Description: FIG. 3 is a process flow diagram 300 of a process for controlling movement of target cells into a predetermined location using negative DEP forces. At 302, target cells (e.g., neuronal cells) in suspension are introduced onto a APSMEA device 100. The target cells are prepared according to institutional guidelines for care and use of animals. For example, to obtain neuronal cells, cortical neurons are excised from 18-day rat embryos and dissociated by trituration after digestion with papain (20 U/ml). The neurons are then resuspended in Neurobasal medium with B27 supplement and 500 μM glutamine. The medium initially added to new cultures are also supplemented with 25 μM glutamate and 25 μM β-mercaptoethanol. With four different concentrations, i.e., 1×10^5 cells/ml, 2×10^5 cells/ml, 5×10^5 cells/ml and 1×10^6 cells/ml, neurons are seeded on the APSMEA device 100 after coating with poly-L-lysine (50 μg/ml) and laminin (10 μg/ml).
FIG. 6a-c represent results of multi-site recordings of extracellular spontaneous electrophysiological activities from cortical neuronal networks (14 DIV) for control (no DEP forces applied) and manipulated (with DEP forces applied) cells at the seeding cell concentration of 5×10^5 cells/ml. Multi-site electrophysiological recordings in this and other implementations can be performed with the APSMEA device connected with a commercial multi-channel amplifier and filtering stage (Cyberkinetics, Salt Lake City, Utah). Measurements are carried out in 14 days old cortical cultures at 37° C., allowing the signals from the recording electrodes 122 amplified (×5000), band-pass filtered (250-7500 Hz), and sampled at 30 kHz/channel on 25 channels simultaneously. Using ±3 times of the standard deviation of the noise level as the threshold value for each channel, electrophysiological activities are detected on-line or off-line. NMDA (5 μM) and APV (5 μM) are also applied in the culture medium, and their related electrophysiological activities before and after any drug (e.g., chemical compounds) administration are both recorded for 10 min. […]

[1] = 5 μM in culture medium, cortical neurons 14 DIV, 10 min recording, n=4 separate APSMEAs

N[C@@H](CCCP(=O)(O)O)C(=O)O [APV]
electrical activity level (sum of spikes over all active sites) compared with no drug added control [1]: 7.8±7.5 % of control

CN[C@H](CC(=O)O)C(=O)O [NMDA]
induced activity level relative to controls [1]: increase three times more than that of controls

TTX
effect on recorded extracellular action potentials (electrical activities): inhibited
